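1) Cells in 96-well plates. 2) Compound, 48 h, 5 concentrations. 3) Linear interpolation between surrounding doses. 4) Unreached endpoint = highest concentration. GI50: concentration for 50% inhibition of growth. TGI: concentration producing complete growth inhibition.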
Assays:
Assay in all cases: inhibition of tumour cell growth, NCI panel, 48 h
COLO 205 colon = tested on: COLO 205 colon
SK-OV-3 ovarian = tested on: SK-OV-3 ovarian
HCC-2998 colon = tested on: HCC-2998 colon
HOP-62 NSCLC = tested on: HOP-62 NSCLC
LOX IMVI melanoma = tested on: LOX IMVI melanoma
SK-MEL-5 melanoma = tested on: SK-MEL-5 melanoma
SF-295 CNS = tested on: SF-295 CNS
SN12C renal = tested on: SN12C renal
CAKI-1 renal = tested on: CAKI-1 renal
SK-MEL-2 melanoma = tested on: SK-MEL-2 melanoma

CC(=O)/C(=C/N1CCNC1=S)C(=O)Nc1ccccc1C
TGI (COLO 205 colon): > 100 µM
TGI (SK-OV-3 ovarian): > 100 µM
TGI (HCC-2998 colon): > 100 µM
TGI (HOP-62 NSCLC): > 100 µM
TGI (LOX IMVI melanoma): > 100 µM
TGI (SK-MEL-5 melanoma): > 100 µM
TGI (SF-295 CNS): > 100 µM
TGI (SN12C renal): > 100 µM
TGI (CAKI-1 renal): > 100 µM
TGI (SK-MEL-2 melanoma): > 100 µM

CN(C)CCCn1c(-c2nonc2N)nc2cnccc21
GI50 (COLO 205 colon): > 25 µM
TGI (COLO 205 colon): > 25 µM
GI50 (SK-OV-3 ovarian): > 25 µM
TGI (SK-OV-3 ovarian): > 25 µM
GI50 (HCC-2998 colon): > 25 µM
TGI (HCC-2998 colon): > 25 µM
GI50 (HOP-62 NSCLC): > 25 µM
TGI (HOP-62 NSCLC): > 25 µM
GI50 (LOX IMVI melanoma): > 25 µM
TGI (LOX IMVI melanoma): > 25 µM
GI50 (SK-MEL-5 melanoma): > 25 µM
TGI (SK-MEL-5 melanoma): > 25 µM
GI50 (SF-295 CNS): > 25 µM
TGI (SF-295 CNS): > 25 µM
GI50 (SN12C renal): > 25 µM
TGI (SN12C renal): > 25 µM
GI50 (CAKI-1 renal): > 25 µM
TGI (CAKI-1 renal): > 25 µM
GI50 (SK-MEL-2 melanoma): > 25 µM
TGI (SK-MEL-2 melanoma): > 25 µM

OCCN1CCN(CC/C=C2/c3ccccc3Sc3ccc(Cl)cc32)CC1
TGI (COLO 205 colon): 23.3 µM
TGI (SK-OV-3 ovarian): 29.3 µM
TGI (HCC-2998 colon): 23.5 µM
TGI (HOP-62 NSCLC): 29.7 µM
TGI (LOX IMVI melanoma): 21.8 µM
TGI (SK-MEL-5 melanoma): 16.5 µM
TGI (SF-295 CNS): 32.6 µM
TGI (SN12C renal): 26 µM
TGI (CAKI-1 renal): 24.4 µM
TGI (SK-MEL-2 melanoma): 28.3 µM

CC(=O)[O-].O=C([CH-]C(=O)c1ccccc1)c1ccccc1.O=C([CH-]C(=O)c1ccccc1)c1ccccc1.[Sm+3]
GI50 (COLO 205 colon): 7.89 µM
TGI (COLO 205 colon): 22.8 µM
GI50 (SK-OV-3 ovarian): 6.18 µM
TGI (SK-OV-3 ovarian): 37.4 µM
GI50 (HCC-2998 colon): 3.81 µM
TGI (HCC-2998 colon): 14.6 µM
GI50 (HOP-62 NSCLC): 1.96 µM
TGI (HOP-62 NSCLC): 9.04 µM
GI50 (LOX IMVI melanoma): 7.01 µM
TGI (LOX IMVI melanoma): 21.7 µM
GI50 (SK-MEL-5 melanoma): 1.66 µM
TGI (SK-MEL-5 melanoma): 10.2 µM
GI50 (SF-295 CNS): 2.66 µM
TGI (SF-295 CNS): 17.2 µM
GI50 (SN12C renal): 6.23 µM
TGI (SN12C renal): 24.8 µM
GI50 (CAKI-1 renal): 3.57 µM
TGI (CAKI-1 renal): 15.9 µM
GI50 (SK-MEL-2 melanoma): 2.03 µM
TGI (SK-MEL-2 melanoma): 6.93 µM
